2 compounds from paper PMC11857971, “^11C-Labeling of a Flavanone Extracted from a South American Native Species for Evaluation of Its Interaction with GSK-3β” (Molecules, 2025) can be followed below.

This test has as its target T1, GSK-3β (Homo sapiens, UniProt P49841).
T1 construct: gene GSK3B
As to the kind of experiment: Kinase-Glo luminescent kinase assay, recombinant human GSK-3β, dose-response. Type of test: biochemical.

T1 sequence (P49841 whole entry): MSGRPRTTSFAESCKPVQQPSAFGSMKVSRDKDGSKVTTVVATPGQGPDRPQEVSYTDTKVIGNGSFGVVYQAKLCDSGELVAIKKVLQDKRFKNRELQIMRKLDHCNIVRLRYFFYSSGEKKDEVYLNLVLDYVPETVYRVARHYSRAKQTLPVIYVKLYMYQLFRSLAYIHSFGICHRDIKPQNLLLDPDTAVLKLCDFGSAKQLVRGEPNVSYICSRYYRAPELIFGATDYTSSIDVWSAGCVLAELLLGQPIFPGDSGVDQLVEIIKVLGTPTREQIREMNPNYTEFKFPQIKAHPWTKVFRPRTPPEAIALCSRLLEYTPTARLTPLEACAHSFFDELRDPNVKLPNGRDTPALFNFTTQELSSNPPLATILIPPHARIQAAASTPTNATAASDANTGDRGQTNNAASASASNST

By IC50 is commonly meant the concentration needed to halve the response being measured. As to `COc1cc(O)c2c(c1CC=C(C)C)O[C@H](c1ccccc1)CC2=O` [FLA, (S)-5-hidroxy-7-methoxy-8-(3-methylbut-2-en-1-yl)-2-phenylcroman-4-one], the half-maximal inhibitory concentration (IC50) is 16.1 ± 0.6 µM.
On to `CC(C)=CCc1c(O)cc(O)c2c1O[C@H](c1ccccc1)CC2=O` [glabranin, (S)-5,7-dihydroxy-8-(3-methylbut-2-en-1-yl)-2-phenylchroman-4-one], for which the IC50 was found to be 44.8 ± 4 µM.
